The experiment addresses T1, aldose reductase (Rattus norvegicus, UniProt P07943).
T1 construct: Lenses were removed from 20 eyeballs of rats and homogenized in 4 ml of 5 mM mercaptethanol; from tissue; host or cells: rat lens, 10,000 rpm supernatant of homogenate
Put plainly: Aldose reductase-inhibiting activity (absorbance change at 340 nm, homogenate of rat lenses as enzyme source, glyceroaldehyde substrate, NADPH coenzyme). The conditions noted are these: rat lens homogenate, 10 mM D,L-glyceroaldehyde, 0.4M Li2SO4, initial one minute. In kind it is biochemical. The protocol:
The change in absorbance at 340 nm for initial one minute was measured, and the inhibiting activity was determined.
Lenses were removed from 20 eyeballs of rats and homogenized in 4 ml of 5 mM mercaptethanol using Glass-Teflon Homogenate. The obtained homogenate was centrifuged at 4° C. and 10,000 rpm for 20 minutes, and resulting supernatant was used as the enzyme source.

Turning to `O=C1C=C2OC3(O)CC(=O)c4c(O)cc(O)cc4C3=C2c2cc(O)cc(O)c21` (stereo not drawn) [RF-3192 C], for the setting “mass concentration”, the Ic50 came out at 130 ng/mL. Also, the IC50 – broadly, the midpoint of a concentration-inhibition curve – (molar value in parentheses) is 340 nM.
The compound `O=C(O)CCC1(O)OC2=CC(=O)c3c(O)cc(O)cc3C2=C1c1ccccc1` (stereo not drawn) [RF-3192 B] yielded an Ic50 (mass concentration) of 1.6 ng/mL. For the setting “molar value in parentheses”, the 50% inhibitory concentration (IC50) amounted to 4.2 nM.
Turning to `O=C(O)CCC1(O)OC2=CC(=O)c3c(O)cc(O)cc3C2=C1c1ccc(O)cc1` (stereo not drawn) [RF-3192 A], the IC50 was 8.33 nM (mass concentration) and 8.2 nM (molar value in parentheses).

The values above are taken from patent US5284870A, “Aldose reductase inhibitor” (Shionogi Seiyaku Kabushiki Kaisha, priority 1992, dated 1994).
